Laboratory results reported in patent US20080089894A1, “Transplant tolerance by costimulation blockade and T-cell activation-induced apoptosis” (priority 1998, published 2008).
Where “and” joins values, the source holds several entries; their conditions need not be identical. Equal entries are not always repeated.

Test system: BALB/c mouse heart allografts
Assay: BALB/c mouse heart allograft survival in C3H/He mice
Format: in vivo
Conditions: BALB/c heart allograft in C3H/He host; one value per mouse; checked daily by palpitation; time in days
Procedure: A control group of three C3H/He mice received syngeneic transplants. The treatments were given as follows:
Group 1) Anti-CD40L+CTLA4-Ig
Anti-CD40L: 250 μg/injection i.v. (intravenous) on day 0, i.p. (intraperitoneal) on day +2, +4,
CTLA4-Ig: 200 μg/injection i.p. on day 0, +2, +4, +6.
Anti-CD40L: 250 μg/injection i.v. on day 0, i.p. on day +2, +4,
CTLA4-Ig: 200 μg/injection i.p. on day 0, +2, +4, +6,
Group 3) Anti-CD40L+CTLA4-Ig+RPM
CTLA4-Ig: 200 μg/injection i.p. on day 0, +2, +4, +6
RPM: 0.2 mg/kg/day i.p. on day 0, +1, +2, then every other day to day +14.
RPM: 0.2 mg/kg/day i.p. on day 0, +1, +2, then every other day to day +14. The hosts were checked daily for graft survival by palpitation. In addition, other mice were sacrificed for pathologic examination at various time points.

For `CO[C@H]1C[C@@H]2CC[C@@H](C)[C@@](O)(O2)C(=O)C(=O)N2CCCC[C@H]2C(=O)O[C@H]([C@H](C)C[C@@H]2CC[C@@H](O)[C@H](OC)C2)CC(=O)[C@H](C)/C=C(\C)[C@@H](O)[C@@H](OC)C(=O)[C@H](C)C[C@H](C)/C=C/C=C/C=C/1C` [RPM, rapamycin], the “Graft Survival” value was > 100 (3×) and > 97 and > 89.
